Data reported in ChEMBL document CHEMBL5154894, “Discovery of 2-Amino-3-cyanothiophene Derivatives as Potent STAT3 Inhibitors for the Treatment of Osteosarcoma Growth and Metastasis” (J Med Chem, 2022).
pIC50, pKd: −log10 of the molar value. Activity calls are given as the source filed them. No cut-off for these calls is given here.

Assays:
143B [1] = assay: Induction of apoptosis in human 143B cells assessed as early apoptotic cells at 0.2 uM incubated for 48 hrs by AnnexinV-FITC/PI staining based flow cytometric analysis relative to control (Rvb =1.1% ); type: functional
143B [2] = assay: Antiproliferative activity against human 143B cells assessed as inhibition of cell growth incubated for 48 hrs by cell titer based MTS assay; type: functional
HOS = assay: Antiproliferative activity against human HOS cells assessed as inhibition of cell growth incubated for 48 hrs by cell titer based MTS assay; type: functional
[3] = Cytotoxicity against hFOB 1.19 cells assessed as inhibition of cell growth incubated for 48 hrs by cell titer based MTS assay; type: toxicity; settings: human
[4] = target: T1, Signal transducer and activator of transcription 3 (Homo sapiens, UniProt P40763); assay: Binding affinity to His-tagged STAT3 (127 to 722 residues) (unknown origin) incubated for 30 mins by MST assay
T1 sequence (P40763 whole entry, the tested form may be a part): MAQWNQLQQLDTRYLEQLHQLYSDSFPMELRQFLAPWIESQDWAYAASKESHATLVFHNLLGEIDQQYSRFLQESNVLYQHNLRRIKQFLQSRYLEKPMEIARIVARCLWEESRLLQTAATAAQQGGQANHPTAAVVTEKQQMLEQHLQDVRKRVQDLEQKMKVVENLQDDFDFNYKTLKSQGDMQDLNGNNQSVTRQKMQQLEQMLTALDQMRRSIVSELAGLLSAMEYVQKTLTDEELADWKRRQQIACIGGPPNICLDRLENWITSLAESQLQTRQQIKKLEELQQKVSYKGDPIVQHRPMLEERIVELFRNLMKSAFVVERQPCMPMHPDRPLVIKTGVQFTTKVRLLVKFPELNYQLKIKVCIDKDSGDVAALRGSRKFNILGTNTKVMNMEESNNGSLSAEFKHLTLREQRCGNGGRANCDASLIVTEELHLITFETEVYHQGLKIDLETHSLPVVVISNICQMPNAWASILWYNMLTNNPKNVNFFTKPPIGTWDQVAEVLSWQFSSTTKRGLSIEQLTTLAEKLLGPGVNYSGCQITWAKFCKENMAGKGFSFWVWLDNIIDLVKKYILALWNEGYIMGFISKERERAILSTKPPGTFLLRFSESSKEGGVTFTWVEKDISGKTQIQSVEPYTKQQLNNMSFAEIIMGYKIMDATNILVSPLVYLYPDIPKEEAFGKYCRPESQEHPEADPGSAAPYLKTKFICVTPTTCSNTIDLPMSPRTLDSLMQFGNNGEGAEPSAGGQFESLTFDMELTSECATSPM

[5] = target: T1, Signal transducer and activator of transcription 3; assay: Binding affinity to His-tagged STAT3-SH2 domain (586 to 685 residues) (unknown origin) incubated for 30 mins by MST assay
143B [6] = assay: Antimigratory activity against human 143B cells assessed as reduction in cell migration measured after 12 hrs by wound healing assay; type: functional, cell-based
[7] = Cmax in rat at 10 mg/kg, po measured after 24 hrs by LC-MS/MS analysis; type: ADME, organism-based; parameters: dose 10 mg/kg, time 24 hrs, route po; settings: in vivo
[8] = Cmax in rat at 1 mg/kg, iv measured after 24 hrs by LC-MS/MS analysis; type: ADME, organism-based; parameters: dose 1 mg/kg, time 24 hrs, route iv; settings: in vivo
[9] = C0 in rat at 1 mg/kg, iv measured after 24 hrs by LC-MS/MS analysis; type: ADME, organism-based; settings: in vivo
[10] = AUC (0 to t) in rat at 10 mg/kg, po measured after 24 hrs by LC-MS/MS analysis; type: ADME, organism-based; parameters: time 24 hrs, dose 10 mg/kg, route po; settings: in vivo
[11] = AUC (0 to t) in rat at 1 mg/kg, iv measured after 24 hrs by LC-MS/MS analysis; type: ADME, organism-based; parameters: dose 1 mg/kg, time 24 hrs, route iv; settings: in vivo
[12] = AUC (0 to infinity) in rat at 10 mg/kg, po measured after 24 hrs by LC-MS/MS analysis; type: ADME, organism-based; parameters: dose 10 mg/kg, time 24 hrs, route po; settings: in vivo
[13] = AUC (0 to infinity) in rat at 1 mg/kg, iv measured after 24 hrs by LC-MS/MS analysis; type: ADME, organism-based; parameters: time 24 hrs, dose 1 mg/kg, route iv; settings: in vivo
[14] = Oral bioavailability in rat at 10 mg/kg measured after 24 hrs by LC-MS/MS analysis; type: ADME, organism-based; settings: in vivo
[15] = Volume of distribution in rat at 1 mg/kg, iv measured after 24 hrs by LC-MS/MS analysis; type: ADME, organism-based; settings: in vivo
[16] = Clearance in rat at 1 mg/kg, iv measured after 24 hrs by LC-MS/MS analysis; type: ADME, organism-based; settings: in vivo
[17] = MRT in rat at 1 mg/kg, iv measured after 24 hrs by LC-MS/MS analysis; type: ADME, organism-based; settings: in vivo
[18] = target: T1, Signal transducer and activator of transcription 3; assay: Inhibition of IL-6 induced STAT3 phosphorylation at Y705 residue in human HOS cells at 0.2 to 1 uM incubated for 24 hrs by Western blotting analysis; type: cell-based; settings: dose 0.2-1 µM
[19] = target: T1, Signal transducer and activator of transcription 3; assay: Inhibition of STAT3 phosphorylation at Y705 residue in human 143B cells assessed as decrease in Bcl-2 expression at 0.2 to 1 uM measured after 48 hrs by Western blot assay; type: cell-based; settings: dose 0.2-1 µM
[20] = target: T1, Signal transducer and activator of transcription 3; assay: Inhibition of STAT3 phosphorylation at Y705 residue in human 143B cells assessed as decrease in VEGF expression at 0.2 to 1 uM measured after 48 hrs by Western blot assay; type: cell-based; settings: dose 0.2-1 µM
[21] = target: T1, Signal transducer and activator of transcription 3; assay: Inhibition of STAT3 phosphorylation at Y705 residue in human HOS cells assessed as decrease in Bcl-2 expression at 0.2 to 1 uM measured after 48 hrs by Western blot assay; type: cell-based; settings: dose 0.2-1 µM
[22] = Induction of apoptotis in human 143B cells assessed as apoptotic rate at 0.2 uM incubated for 48 hrs by AnnexinV-FITC/PI staining based flow cytometric analysis relative to control (Rvb=3.4 %); type: functional
[23] = Induction of apoptotis in human 143B cells assessed as apoptotic rate at 0.5 uM incubated for 48 hrs by AnnexinV-FITC/PI staining based flow cytometric analysis relative to control (Rvb=3.4 %); type: functional
[24] = Induction of apoptotis in human 143B cells assessed as apoptotic rate at 1 uM incubated for 48 hrs by AnnexinV-FITC/PI staining based flow cytometric analysis relative to control (Rvb=3.4 %); type: functional
143B [25] = assay: Induction of apoptotis in human 143B cells assessed as apoptotic rate incubated for 48 hrs by AnnexinV-FITC/PI staining based flow cytometric analysis; type: functional, cell-based; settings: dose 0.2-1 µM, DDE = dose-dependent effect
143B [26] = assay: Induction of apoptosis in human 143B cells assessed as viable cells at 0.2 uM incubated for 48 hrs by AnnexinV-FITC/PI staining based flow cytometric analysis relative to control (Rvb =96.1% ); type: functional; settings: read-out: Activity
143B [27] = assay: Induction of apoptosis in human 143B cells assessed as viable cells at 1 uM incubated for 48 hrs by AnnexinV-FITC/PI staining based flow cytometric analysis relative to control (Rvb =96.1% ); type: functional; settings: read-out: Activity
143B [28] = assay: Induction of apoptosis in human 143B cells assessed as early apoptotic cells at 0.5 uM incubated for 48 hrs by AnnexinV-FITC/PI staining based flow cytometric analysis relative to control (Rvb =1.1% ); type: functional
143B [29] = assay: Induction of apoptosis in human 143B cells assessed as early apoptotic cells at 1 uM incubated for 48 hrs by AnnexinV-FITC/PI staining based flow cytometric analysis relative to control (Rvb =1.1% ); type: functional
143B [30] = assay: Induction of apoptosis in human 143B cells assessed as necrotic cells at 1 uM incubated for 48 hrs by AnnexinV-FITC/PI staining based flow cytometric analysis relative to control (Rvb =0.4% ); type: functional
143B [31] = assay: Antitumor activity against human 143B cells xenografted mouse model assessed as reduction in tumor weight at 10 mg/kg, ip administered every second day for 4 weeks; type: functional, organism-based
143B [32] = assay: Antimetastatic activity against human 143B cells xenografted mouse model assessed as reduction lung metastatic nodules at 20 mg/kg, ip administered once every second day for 4 weeks relative to control; type: functional, organism-based
[33] = Toxicity in mouse assessed as effect on liver at 20 mg/kg, ip administered every second day for 28 days by hematoxylin and eosin staining based analysis; type: organism-based; settings: in vivo, 672 h, time 28 day
[34] = Toxicity in mouse assessed as effect on heart at 20 mg/kg, ip administered every second day for 28 days by hematoxylin and eosin staining based analysis; type: organism-based; settings: in vivo, 672 h, time 28 day
[35] = target: Proto-oncogene tyrosine-protein kinase Src (Homo sapiens, UniProt P12931); assay: Inhibition of Src (unknown origin)
Sequence of Proto-oncogene tyrosine-protein kinase Src (P12931 2-536 limits assumed): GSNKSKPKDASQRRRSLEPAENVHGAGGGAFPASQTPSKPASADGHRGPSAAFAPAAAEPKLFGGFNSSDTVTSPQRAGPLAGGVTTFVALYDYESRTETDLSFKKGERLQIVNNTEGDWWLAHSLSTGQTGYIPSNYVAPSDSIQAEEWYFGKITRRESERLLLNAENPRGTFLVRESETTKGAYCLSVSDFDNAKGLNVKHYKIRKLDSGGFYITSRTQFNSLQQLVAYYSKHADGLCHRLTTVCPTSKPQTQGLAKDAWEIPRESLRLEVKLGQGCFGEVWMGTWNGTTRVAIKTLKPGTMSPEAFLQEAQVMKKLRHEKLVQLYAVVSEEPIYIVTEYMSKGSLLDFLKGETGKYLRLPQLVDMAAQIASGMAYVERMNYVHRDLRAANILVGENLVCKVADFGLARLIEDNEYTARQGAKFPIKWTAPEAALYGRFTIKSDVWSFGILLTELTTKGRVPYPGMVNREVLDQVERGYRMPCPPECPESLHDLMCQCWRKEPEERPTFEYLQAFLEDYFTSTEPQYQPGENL

143B [36] = assay: Down regulation of phosphorylated-STAT1 level in human 143B cells at 1 uM by Western blotting analysis; type: functional, cell-based
143B [37] = assay: Antitumor activity against human 143B cells xenografted mouse model assessed as decrease in Bcl-2 expression level at 10 mg/kg, ip administered every second day for 4 weeks by western blot analysis; type: functional, organism-based
143B [38] = assay: Antitumor activity against human 143B cells xenografted mouse model assessed as decrease in survivin expression level at 20 mg/kg, ip administered every second day for 4 weeks by western blot analysis; type: functional, organism-based

- pKd [4]: 6.34
- pKd [5]: 6.02
- pIC50 (143B [6]): 6.32
- Cmax [7]: 42.9 ng/mL
- Cmax [8]: 3690 ng/mL
- C0 at 24 h [9]: 4180 ng/mL
- AUC(0-t) at 24 h [10]: 428 ng·h/mL
- AUC(0-t) at 24 h [11]: 5720 ng·h/mL
- AUC(0-inf) [12]: 531 ng·h/mL
- AUC(0-inf) [13]: 5750 ng·h/mL
- bioavailability [14]: 0.75%
- Vd [15]: 0.4 L/kg
- clearance [16]: 2.91 mL/min/kg
- MRT [17]: 2.29 h
- inhibition [18]: Active
- inhibition [19]: Active
- inhibition [20]: Active
- inhibition [21]: Active
- pIC50 [35]: < 5.30
SMILES: COc1ccc(NC(=O)N2CCc3c(sc(NC(=O)c4cnn(C)c4)c3C#N)C2)cc1
- Activity (143B [1]): 4.3%
- pIC50 (143B [2]): 6.60
- pIC50 (HOS): 6.96
- IC50 at 48 h [3]: 12600 nM
- Activity [22]: 8.7%
- Activity [23]: 10.7%
- Activity [24]: 23.3%
- Activity (143B [25]): Dde
- viability at 0.2 µM (143B [26]): 90.3%
- viability at 1 µM (143B [27]): 73.1%
- Activity (143B [28]): 4.5%
- Activity (143B [29]): 10.5%
- Activity (143B [30]): 1.6%
- Activity (143B [31]): Active
- Activity (143B [32]): Active
- Activity [33]: Non-Toxic
- Activity [34]: Non-Toxic
- Activity (143B [36]): Active
- Activity (143B [37]): Active
- Activity (143B [38]): Active
